The results in this text go back to patent US8343977B2, “Substituted triazolo-pyrimidine compounds” (ArQule, Inc., priority 2009, dated 2013).

SMILES strings stand for the structures.

One assay has as its system DLD-1 cancer cells. The assay is described as follows: MTS Assay. To be noted: Homo sapiens, DLD-1 cells, 72 h. Type of assay: cell-based. The method, then:
Cells were maintained at 37° C., 5% CO2 in DMEM media supplemented with 1% fetal bovine serum, penicillin/streptomycin and fungizone (Invitrogen). Cells were seeded into 96-well tissue culture plates at 3000 per well and cultured at 37° C. for 18 hours. Test compounds were dissolved and diluted to 300× in DMSO then diluted 1:40 in DMEM. Cells were incubated with test compounds for 72 hours followed by incubation with tetrazolium compound (3-(4,5-dimethylthiazol-2-yl)-5-(3-carboxymethoxyphenyl)-2-(4-sulfophenyl)-2H-tetrazolium, inner salt; MTS) and the electron coupling reagent, phenazine methosulfate (PMS) for 4 hours. […] The ability of compounds to inhibit cell growth in this assay is correlated with the reduction of dehydrogenase enzyme activity found in metabolically active cells. The measurement of the absorbance of the formazan was assessed using a Victor (Perkin Elmer) microplate reader at 492 nm. The calculated IC50 value is the concentration of the test compound that causes a 50% decrease in the absorbance.

The target in another assay is T1, Tec kinase (Homo sapiens, UniProt P42680).
T1 sequence (P42680 1-631): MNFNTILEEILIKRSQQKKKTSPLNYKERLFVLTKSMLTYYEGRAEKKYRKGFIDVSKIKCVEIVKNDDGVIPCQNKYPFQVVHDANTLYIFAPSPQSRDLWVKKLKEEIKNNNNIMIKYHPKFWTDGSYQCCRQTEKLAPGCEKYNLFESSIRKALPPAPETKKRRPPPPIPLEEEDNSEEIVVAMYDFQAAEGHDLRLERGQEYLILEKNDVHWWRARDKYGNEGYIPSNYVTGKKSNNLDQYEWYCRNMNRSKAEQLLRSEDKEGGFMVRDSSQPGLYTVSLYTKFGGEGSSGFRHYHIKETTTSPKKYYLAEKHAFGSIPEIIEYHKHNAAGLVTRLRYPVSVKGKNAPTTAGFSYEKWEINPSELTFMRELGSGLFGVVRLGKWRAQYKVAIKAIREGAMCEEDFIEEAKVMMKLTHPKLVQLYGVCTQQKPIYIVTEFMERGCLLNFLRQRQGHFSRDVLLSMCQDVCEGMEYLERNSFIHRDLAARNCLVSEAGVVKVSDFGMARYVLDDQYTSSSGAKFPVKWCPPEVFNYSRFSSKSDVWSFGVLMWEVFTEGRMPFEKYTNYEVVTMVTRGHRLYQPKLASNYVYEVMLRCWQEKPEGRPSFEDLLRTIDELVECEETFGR
The assay is described as follows: Tec Kinase Activity Assay. The format is biochemical. To be noted: test concentration not given. As to the method:
Tec Kinase Activity Assay
The disclosed compounds were assayed for their ability to inhibit the activity of Tec kinase. Nunc Maxisorb plates were coated with streptavidin by overnight incubation with 100 μL per well of 1 μg/mL Streptavidin in DPBS. Prior to the start of the experiment, the plates were washed with TBST (3×200 μL) and blocked for at least 1 hour by adding 150 μL of 5% BSA/TBST. The plates were washed with TBST (3×200 μL/well) and left dry immediately before the capture step.
The test articles and controls (Staurosporine and Sutent) were prepared using the following assay buffer at 3× desired final concentration (50 mM Tris-HCl, 0.02 mg/mL BSA, 10 mM MgCl2, 0.1 mM Na3VO4, 1 mM EGTA, 75 μM ATP0.01% NP-40, 2 mM DTT in 10% glycerol/water). In a reaction plate were added rapidly 20 μL test article (or control) and 20 μL TEC 0.25 ng/μL. The plate was incubated for 30 minutes. To the reaction plate was added 20 μL of Pyk-2 0.5 ng/μL. The plate was incubated at room temperature for two hours.
(§1) From the reaction plate, 50 μL was transferred to the streptavidin coated plate. The capture plate was incubated at room temperature for 30 minutes then washed 6× with TBST. To the capture plate was added 100 μL/well of Cell Signaling anti-phospho tyrosine at a dilution of 1:3000 in 2% BSA/TBST. The plate was incubated for one hour at room temperature then washed 6× with TBST. To the capture plate was added 100 μL/well of Alkaline Phosphatase Tagged Goat anti Mouse Antibody at a dilution of 1:4000 in 2% BSA/TBST. The plate was incubated for one hour at room temperature then washed 6× with TBST. The fluorescent readout was initiated by the addition of 100 μL/well of Attophos reagent (6 mg/10 mL). The reading was done on the Perkin Elmer Envision system.

A further assay deals with RET kinase (Homo sapiens, UniProt P07949). The assay is described as follows: RET Kinase Activity Assay. The format is biochemical. To be noted: test concentration not given. As to the method:
RET Kinase Activity Assay
The disclosed compounds were assayed for their ability to inhibit the activity of RET kinase. Nunc Maxwasorb plates were coated with streptavidin by overnight incubation with 100 μL per well of 1 μg/mL Streptavidin in DPBS. Prior to the start of the experiment, the plates were washed with TBST (3×200 μL) and blocked for at least 1 hour by adding 150 μL of 5% BSA/TBST. The plates were washed with TBST (3×200 μL/well) and left dry immediately before the capture step.
The test articles and controls (Staurosporine and Sutent) were prepared using the following assay buffer at 3× desired final concentration (50 mM […], 0.02 mg/mL BSA, 10 mM MgCl2, 0.1 mM Na3VO4, 1 mM EGTA, 75 μM ATP0.01% NP-40, 2 mM DTT in 10% glycerol/water). In a reaction plate, were added rapidly 20 μL test article (or control) and 20 μL RET (0.25 ng/μL final concentration). The plate was incubated for 15 minutes. To the reaction plate was added 20 μL of Pyk-2 (0.25 ng/μL final concentration). The plate was incubated at room temperature for one hour.
as §1, with “Envwasion” for “Envision”

RET kinase, sequence (P07949 29-1114): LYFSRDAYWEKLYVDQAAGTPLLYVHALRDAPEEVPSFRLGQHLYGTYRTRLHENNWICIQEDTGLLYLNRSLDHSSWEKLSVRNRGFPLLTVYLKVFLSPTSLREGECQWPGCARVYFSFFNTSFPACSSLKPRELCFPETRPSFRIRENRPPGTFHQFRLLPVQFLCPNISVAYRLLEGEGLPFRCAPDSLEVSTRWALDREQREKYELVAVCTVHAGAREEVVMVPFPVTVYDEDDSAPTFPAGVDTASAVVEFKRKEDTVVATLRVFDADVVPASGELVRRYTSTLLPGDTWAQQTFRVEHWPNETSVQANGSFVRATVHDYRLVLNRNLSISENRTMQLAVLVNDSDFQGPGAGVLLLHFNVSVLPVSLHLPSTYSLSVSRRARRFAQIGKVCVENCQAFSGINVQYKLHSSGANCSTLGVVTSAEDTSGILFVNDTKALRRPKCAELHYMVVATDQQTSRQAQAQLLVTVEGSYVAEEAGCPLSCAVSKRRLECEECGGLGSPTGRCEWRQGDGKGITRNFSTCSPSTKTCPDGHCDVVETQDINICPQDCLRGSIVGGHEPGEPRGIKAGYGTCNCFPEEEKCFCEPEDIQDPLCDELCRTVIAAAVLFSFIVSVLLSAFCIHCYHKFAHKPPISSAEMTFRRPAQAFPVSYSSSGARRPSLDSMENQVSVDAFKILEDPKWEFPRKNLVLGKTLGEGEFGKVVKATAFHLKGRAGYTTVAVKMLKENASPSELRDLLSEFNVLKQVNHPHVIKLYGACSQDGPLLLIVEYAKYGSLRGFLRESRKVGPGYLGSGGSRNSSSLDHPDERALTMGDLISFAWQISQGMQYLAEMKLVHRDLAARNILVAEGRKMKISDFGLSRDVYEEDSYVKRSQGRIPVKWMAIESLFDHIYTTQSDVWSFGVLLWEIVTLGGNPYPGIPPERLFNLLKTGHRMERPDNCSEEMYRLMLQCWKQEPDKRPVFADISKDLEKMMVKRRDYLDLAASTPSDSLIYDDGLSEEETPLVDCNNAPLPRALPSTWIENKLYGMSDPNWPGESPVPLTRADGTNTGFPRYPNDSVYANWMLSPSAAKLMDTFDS

With `COc1ccc(-c2cnc3nnc(-c4ccc(CC(C)C)cc4)n3c2)cc1` [Compound 8, 3-(4-isobutylphenyl)-6-(4-methoxyphenyl)-[1,2,4]triazolo[4,3-a]pyrimidine], the inhibition (in general, how much of the control response was suppressed) at 10 µM in the assay on DLD-1 cancer cells worked out at 74%. In addition, the “Kinase Activity (Tec kinase inhibition)” value on Tec kinase is listed as “B (B indicates 50-75% inhibition)”.

For `CC(C)(C)c1ccc(-c2cnc3nnc(-c4ccc(C#N)cc4)n3c2)cc1` [Compound 9, 4-(6-(4-tert-butylphenyl)-[1,2,4]triazolo[4,3-a]pyrimidin-3-yl)benzonitrile], at 10 µM the inhibition in the assay on DLD-1 cancer cells was 39%. The “Kinase Activity (Tec kinase inhibition)” value on Tec kinase is “B (B indicates 50-75% inhibition)”. Further, the “Kinase Activity (RET kinase inhibition)” value on RET kinase was “A (A indicates 75-100% inhibition)”. The matching figures for `c1ccc(-c2nnc3ncc(-c4cccc5[nH]ccc45)cn23)cc1` [Compound 3, 6-(1H-indol-4-yl)-3-phenyl-[1,2,4]triazolo[4,3-a]pyrimidine]: 98%, “A (A indicates 75-100% inhibition)” and “A (A indicates 75-100% inhibition)”. In the case of `CS(=O)(=O)c1ccc(-c2nnc3ncc(-c4ccccc4Oc4ccccc4)cn23)cc1` [Compound 11, 3-(4-(methylsulfonyl)phenyl)-6-(2-phenoxyphenyl)-[1,2,4]triazolo[4,3-a]pyrimidine], the “Kinase Activity (RET kinase inhibition)” value on RET kinase was “A (A indicates 75-100% inhibition)”. As for `c1ccc(Oc2ccc(-c3cnc4nnc(-c5ccncc5)n4c3)cc2)cc1` [Compound 6, 6-(4-phenoxyphenyl)-3-(pyridin-4-yl)-[1,2,4]triazolo[4,3-a]pyrimidine], the “Kinase Activity (Tec kinase inhibition)” value on Tec kinase is “A (A indicates 75-100% inhibition)”. Besides, at RET kinase, the “Kinase Activity (RET kinase inhibition)” value is recorded as “A (A indicates 75-100% inhibition)”. Regarding `Brc1cnc2nnc(-c3ccc(-c4cccnc4)cc3)n2c1` [Compound 2, 6-bromo-3-(4-(pyridin-3-yl)phenyl)-[1,2,4]triazolo[4,3-a]pyrimidine], the “Kinase Activity (Tec kinase inhibition)” value at Tec kinase is on record as “B (B indicates 50-75% inhibition)”. Regarding `c1cc(-c2cnc3nnc(-c4ccncc4)n3c2)c2cc[nH]c2c1` [Compound 4, 6-(1H-indol-4-yl)-3-(pyridin-4-yl)-[1,2,4]triazolo[4,3-a]pyrimidine], on RET kinase, the “Kinase Activity (RET kinase inhibition)” value is given as “A (A indicates 75-100% inhibition)”. The same measure, in the same setting: as for `Cc1ccc(-c2cnc3nnc(-c4ccc(S(C)(=O)=O)cc4)n3c2)c2ccccc12` [Compound 10, 6-(4-methylnaphthalen-1-yl)-3-(4-(methylsulfonyl)phenyl)-[1,2,4]triazolo[4,3-a]pyrimidine], the entry is “A (A indicates 75-100% inhibition)”.

As to `c1ccc(Oc2ccccc2-c2cnc3nnc(-c4ccncc4)n3c2)cc1` [Compound 5, 6-(2-phenoxyphenyl)-3-(pyridin-4-yl)-[1,2,4]triazolo[4,3-a]pyrimidine], the inhibition at 10 µM in the assay on DLD-1 cancer cells stood at 13%. For the same molecule, at Tec kinase, the “Kinase Activity (Tec kinase inhibition)” value is recorded as “B (B indicates 50-75% inhibition)”. For the same molecule, on RET kinase, the “Kinase Activity (RET kinase inhibition)” value is reported as “B (B indicates 50-75% inhibition)”. As for `Brc1cnc2nnc(-c3ccccc3)n2c1` [Compound 1, 6-bromo-3-phenyl-[1,2,4]triazolo[4,3-a]pyrimidine], at Tec kinase, the “Kinase Activity (Tec kinase inhibition)” value is “A (A indicates 75-100% inhibition)”.

In the assay on DLD-1 cancer cells, `CS(=O)(=O)c1ccc(-c2nnc3ncc(-c4ccc(Oc5ccccc5)cc4)cn23)cc1` [Compound 7, 3-(4-(methylsulfonyl)phenyl)-6-(4-phenoxyphenyl)-[1,2,4]triazolo[4,3-a]pyrimidine] showed an inhibition at 10 µM of 98%. At Tec kinase, the “Kinase Activity (Tec kinase inhibition)” value was “A (A indicates 75-100% inhibition)”. Also, at RET kinase, the “Kinase Activity (RET kinase inhibition)” value is on record as “A (A indicates 75-100% inhibition)”.
